Experimental data as given in US12448383B2, “Compounds and methods for treatment of viral infections” (priority 2022, dated 2025).

Tests used:
[1] = system: Respiratory syncytial virus recombinant with luciferase (RSV-Luc5) in HEp-2 cells; test: microbe, parasite or virus in culture; assay type: cell-based; conditions: human respiratory syncytial virus, HEp-2, 72 h, read-out: RSV Hep2 EC50
[2] = system: SARS Coronavirus 2 recombinant with NanoLuc (SARS-CoV2-NLuc) in A549-hACE2 cells; test: organism not typed; assay type: cell-based; conditions: 48 h; read-out: SARS-CoV2 EC50
[3] = system: Respiratory syncytial virus recombinant with luciferase (RSV-Luc5) in Normal Human Bronchial Epithelial (NHBE) cells; test: microbe, parasite or virus in culture; assay type: cell-based; conditions: 72 h, read-out: RSV NHBE EC50
[4] = CC50 MT4 cytotoxicity (Cell-Titer Glo); assay type: cell-based; conditions: human
Outline: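 Uninfected MT-4 and HEp-2 cells cultured 4-5 days at 37° C with 3-fold serially diluted compound (15 nM to 100,000 nM). Viability read by Cell-Titer Glo luminescence; untreated and 2 μM puromycin wells set 100% and 0%. CC50 from non-linear regression as concentration reducing viability by 50%.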

[5] = GI S9 stability; assay type: in vitro ADME; conditions: human, s9, pH 7.4
Description: Example G: GI S9 Stability
Duplicate aliquots of test compound or positive control substrate (GS-7340) were added to S9 stock diluted with 100 mM phosphate buffered saline, pH 7.4, to obtain a protein concentration of 1.0 mg/mL. The S9 metabolic reactions were initiated by the addition of the substrates to the S9 reaction mixture to a final concentration of 2 μM. At 0, 10, 20, 30, 60 and 120 min, […] aliquots of the reaction mixture were transferred to plates containing […] of IS/Q solution. After quenching, the plates were centrifuged at 3000 g for 30 minutes, and 150 μL aliquots of each supernatant were diluted with 150 μL water. Aliquots ([…]) of the diluted supernatant were analyzed on a Thermo Q-Exactive mass spectrometer as described below. GI S9 Stability—No phenylmethylsulfonyl fluoride (PMSF): Similar to the procedure described above, test compounds were incubated at 2 μM with 1 mg/mL PMSF-free Intestinal S9 fractions. Samples are removed at 6 time points over the course of a 120 min experiment and the parent compound disappreance and reference compound A formation is determined by mass spectrometry.
Example K: Liquid Chromatography/Mass Spectroscopy Methods for S9 and Plasma Stability
Quantification of test compounds, Reference Compound A (S9 stability assay nucleoside metabolite), and controls was performed by analyte/internal standard peak area ratio (PAR) values measured on a Thermo Q-Exactive mass spectrometer coupled to a Dionex UltiMate 3000 HPLC with a Leap Technologies HTC PAL autosampler. The column used for analysis of test compounds and Reference Compound A was a Waters Acquity BEH C18 ([…] particle size, 2.1′50 mm). The column used for control (GS-7340) was a Thermo Hypersil GOLD ([…] particle size, 2.1′50 mm). Mobile phase A consisted of 0.1% (v/v) formic acid in water. Mobile phase B consisted of 0.1% (v/v) formic acid in acetonitrile. Elution of analytes was achieved by a series of linear gradients of acetonitrile in water containing 0.1°(v/v) formic acid. The mass spectrometer was calibrated on a weekly basis and mass tolerance of 5 ppm was used.

[6] = Plasma stability; assay type: in vitro ADME; set-up: unit not given here; conditions: 37° C., 2 μM substrate
Outline: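 Reaction mixture was sampled at 0.05, 0.5, 1, 2, 3 and 4 hr into quench solution containing internal standard, then centrifuged and diluted with water. Remaining analyte was measured by LC-MS on a Q-Exactive using a formic acid/acetonitrile gradient, with 5 ppm mass tolerance.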

[7] = system: Caco-2 cells (clone C2BBe1); test: CACO-2 permeability; assay type: in vitro ADME; set-up: unit not given here; conditions: for DM Caco2 A to B: apical to basolateral, donor pH 6.5, receiver pH 7.4; for DM Caco2 B to A: basolateral to apical
Outline: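 Caco-2 monolayers grown 21 days on collagen-coated transwells and checked for integrity by TEER. Donor buffer was HBSS/HEPES/glucose pH 6.5 with 200 μM BNPP; receiver was pH 7.4 with BSA. Compounds were dosed apically or basolaterally for A-to-B and B-to-A transport, with receiver sampling at 1 and 2 h, LC-MS/MS analysis and percent recovery.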

[8] = GI S9 stability - no PMSF; assay type: in vitro ADME; conditions: pH 7.4; human intestinal S9, PMSF-free; read-out: GIS9-HUMAN-NoPMSF T1/2
Outline: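 Compounds were incubated at 2 μM with PMSF-free intestinal S9 (1 mg/mL protein) in 100 mM PBS, pH 7.4, sampling at 6 time points over 120 min. Parent disappearance and formation of the nucleoside metabolite Reference Compound A were quantified by LC-MS (Q-Exactive) using analyte/internal standard peak area ratios.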

[9] = Thermodynamic solubility in pH7 buffered solution; conditions: 50 mM phosphate buffer pH7, 150 mM NaCl, ambient temperature, 24 hours
Description: Solubility was determined at ambient temperature in a 50 mM phosphate buffered pH7 solution with 150 mM NaCl (to achieve isotonicity). Solids were added to the buffered solution in 1.5-mL Eppendorf tubes, vortexed for 1 minute, then agitated for 24 hours in an Eppendorf ThermoMixer C. […] Supernatants were diluted to a volume of 1 mL with 30:70 v/v acetonitrile:water. All diluted supernatants were analyzed by UPLC using a Waters Acquity UPLC with a PDA UV detector.

[10] = Stability in pH2 buffered solution; assay type: physicochemical; conditions: pH2 phosphate buffer, 40° C., 24 h; Table N2
Outline: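 Compounds diluted from 1 mg/mL acetonitrile stock to 50 μg/mL in 50 mM phosphate buffer with 150 mM NaCl at pH2 or pH7, held at 40° C. for 24 hrs. UPLC sampling at 0, 3, 6, 9, 12 hrs, plus 24 hrs from oven-stored duplicate; reported as % area normalized of compound peak.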

[11] = Stability in pH7 buffered solution; assay type: physicochemical; conditions: pH7 phosphate buffer, 40° C., Table N2
Description: Example N: Stability in p112 and p117 Buffered Solutions
The aqueous stability of compounds over a time of 24 hours at 40° C. was assessed. Stability was determined in 50 mM phosphate buffered solutions at both pH2 and pH7, with 150 mM NaCl (to achieve isotonicity). 3-5 mg of solid compounds were added to 7 mL scintillation vials. Acetonitrile was added to each vial to produce a 1 mg/mL stock solution. Stock solutions were diluted to 50 μg/mL in either pH2 or pH7 phosphate buffer, to a volume of 1 mL. For each compound and pH condition, 50 μg/mL samples were prepped in duplicate. One sample was placed on the UPLC tray at 40° C. for analysis, and the second sample was placed in a 40° C. oven for storage. Sample preps for each compound were offset by 40 minutes to account for run time on UPLC.
Concentration timepoints were measured at 0, 3, 6, 9, and 12 hrs. After 24 hrs, samples in the 40° C. oven were removed and analyzed by UPLC.
In FIG. 2, % AN stands for % area normalized. That is, % AN is the area of the compound peak relative to the sum of areas of all the peaks in the UPLC chromatogram. For example, if there were two peaks, compound peak with an area of 9 and another peak with an area of 1, then the % AN of the compound peak would be 90%.

Row | SMILES | EC50 [1] | EC50 [2] | EC50 [3] | CC50 [4] | half-life at 2 µM [5] | STA Human Plasma 37 [6] | DM Caco2 A to B [7] | DM Caco2 B to A [7] | half-life at 2 µM [8] | Sol pH 7 [9] | pH 2 Stability 24 h % AN [10] | pH 7 Stability 24 h % AN [11]
1 | COCCOC(=O)OC[C@H]1O[C@@](C#N)(c2ccc3c(N)ncnn23)[C@H](O)[C@@H]1O [Compound 10, ((2R,3S,4R,5R)-5-(4-aminopyrrolo[2,1-f][1,2,4]triazine-7-yl)-5-cyano-3,4-dihydroxytetrahydrofuran-2-yl)methyl (2-methoxyethyl) carbonate] | 3960 nM | 14.1 µM | 2990 nM | > 50 µM | ≥ 789 min | 43.569 | 0.08 | 1.39 |  |  |  | 
2 | N#C[C@@]1(c2ccc3c(N)ncnn23)O[C@H](COC(=O)Oc2ccccc2)[C@@H](O)[C@H]1O [Compound 7, ((2R,3S,4R,5R)-5-(4-aminopyrrolo[2,1-f][1,2,4]triazin-7-yl)-5-cyano-3,4-dihydroxytetrahydrofuran-2-yl)methyl phenyl carbonate] | 416 nM | 0.915 µM | 1340 nM | 47.4 µM | 54 min | 6.563 | 0.52 | 8.98 |  |  |  | 
3 | CC(C)COC(=O)OC[C@H]1O[C@@](C#N)(c2ccc3c(N)ncnn23)[C@H](OC(=O)C(C)C)[C@@H]1OC(=O)C(C)C [Compound 16, (2R,3R,4R,5R)-2-(4-aminopyrrolo[2,1-f][1,2,4]triazin-7-yl)-2-cyano-5-(((isobutoxycarbonyl)oxy)methyl)tetrahydrofuran-3,4-diyl bis(2-methylpropanoate)] | 1150 nM | 2.57 µM | 981 nM | 27.8 µM | 1.01 min | 30.6 |  |  |  |  |  | 
4 | CC(C)COC(=O)Nc1ncnn2c([C@]3(C#N)O[C@H](COC(=O)OCC(C)C)[C@@H](O)[C@H]3O)ccc12 [Compound 2, isobutyl (7-((2R,3R,4S,5R)-2-cyano-3,4-dihydroxy-5-(((isobutoxycarbonyl)oxy)methyl)tetrahydrofuran-2-yl)pyrrolo[2,1-f][1,2,4]triazin-4-yl)carbamate] | 6610 nM | > 50 µM | 9600 nM | > 50 µM | 157 min | 344.3 | 1.17 | 8.69 |  |  |  | 
5 | CC(C)(C)COC(=O)OC[C@H]1O[C@@](C#N)(c2ccc3c(=N)n(COP(=O)(O)O)cnn23)[C@H](O)[C@@H]1O [Compound 19, ((2R,3S,4R,5R)-5-cyano-3,4-dihydroxy-5-(4-imino-3-((phosphonooxy)methyl)-3,4-dihydropyrrolo[2,1-f][1,2,4]triazin-7-yl)tetrahydrofuran-2-yl)methyl neopentyl carbonate] | 1240 nM | 7.7 µM | 5400 nM | > 50 µM | 27.4 min | 1584 |  |  |  |  |  | 
6 | CCOC(=O)C(C)(C)OC(=O)OC[C@H]1O[C@@](C#N)(c2ccc3c(N)ncnn23)[C@H](O)[C@@H]1O [Compound 77, Ethyl 2-(((((2R,3S,4R,5R)-5-(4-aminopyrrolo[2,1-f][1,2,4]triazin-7-yl)-5-cyano-3,4-dihydroxytetrahydrofuran-2-yl)methoxy)carbonyl)oxy)-2-methyl propanoate] |  | > 50 µM | ≥ 50000 nM | > 50 µM |  | 383.67 | 0.27 | 5.58 | 792 min | 4.64 | 98 % AN | 95 % AN
7 | N#C[C@@]1(c2ccc3c(N)ncnn23)O[C@H](COC(=O)OC2CCOC2)[C@@H](O)[C@H]1O (stereo partly drawn) [Compound 11, ((2R,3S,4R,5R)-5-(4-aminopyrrolo[2,1-f][1,2,4]triazin-7-yl)-5-cyano-3,4-dihydroxytetrahydrofuran-2-yl)methyl (tetrahydrofuran-3-yl) carbonate] | 4940 nM | 20.6 µM | 2920 nM | > 50 µM | ≥ 789 min | 135.19 |  |  |  |  |  | 
8 | N#C[C@@]1(c2ccc3c(N)ncnn23)O[C@H](COC(=O)OC2CC2)[C@@H](O)[C@H]1O [Compound 9, ((2R,3S,4R,5R)-5-(4-aminopyrrolo[2,1-f][1,2,4]triazin-7-yl)-5-cyano-3,4-dihydroxytetrahydrofuran-2-yl)methyl cyclopropyl carbonate] | 784 nM | 2.28 µM | 1810 nM | > 50 µM | 311 min | 156.68 | 0.39 | 5.17 |  |  |  | 
9 | N#C[C@@]1(c2ccc3c(N)ncnn23)O[C@H](COC(=O)OC2CCCC2)[C@@H](O)[C@H]1O [Compound 12, ((2R,3S,4R,5R)-5-(4-aminopyrrolo[2,1-f][1,2,4]triazin-7-yl)-5-cyano-3,4-dihydroxytetrahydrofuran-2-yl)methyl cyclopentyl carbonate] | 659 nM | 2.35 µM | 1580 nM | > 50 µM | 58 min | 35.623 | 1.15 | 13.73 |  |  |  | 
